In US20240366770A1, “DEGRADATION OF BRUTON'S TYROSINE KINASE (BTK) BY CONJUGATION OF BTK INHIBITORS WITH E3 LIGASE LIGAND AND METHODS OF USE” (BeiGene Switzerland GmbH, priority 2021, published 2024) one finds DC50 and IC50 data, which are given here for twelve compounds.

The target in one assay is T1, BTK (Homo sapiens, UniProt Q06187).
T1 construct: High control=Cell group with added DMSO and without compound, indicating microplate readings without BTK degradation; endogenous in cells; host or cells: TMD-8
T1 sequence (Q06187 whole entry): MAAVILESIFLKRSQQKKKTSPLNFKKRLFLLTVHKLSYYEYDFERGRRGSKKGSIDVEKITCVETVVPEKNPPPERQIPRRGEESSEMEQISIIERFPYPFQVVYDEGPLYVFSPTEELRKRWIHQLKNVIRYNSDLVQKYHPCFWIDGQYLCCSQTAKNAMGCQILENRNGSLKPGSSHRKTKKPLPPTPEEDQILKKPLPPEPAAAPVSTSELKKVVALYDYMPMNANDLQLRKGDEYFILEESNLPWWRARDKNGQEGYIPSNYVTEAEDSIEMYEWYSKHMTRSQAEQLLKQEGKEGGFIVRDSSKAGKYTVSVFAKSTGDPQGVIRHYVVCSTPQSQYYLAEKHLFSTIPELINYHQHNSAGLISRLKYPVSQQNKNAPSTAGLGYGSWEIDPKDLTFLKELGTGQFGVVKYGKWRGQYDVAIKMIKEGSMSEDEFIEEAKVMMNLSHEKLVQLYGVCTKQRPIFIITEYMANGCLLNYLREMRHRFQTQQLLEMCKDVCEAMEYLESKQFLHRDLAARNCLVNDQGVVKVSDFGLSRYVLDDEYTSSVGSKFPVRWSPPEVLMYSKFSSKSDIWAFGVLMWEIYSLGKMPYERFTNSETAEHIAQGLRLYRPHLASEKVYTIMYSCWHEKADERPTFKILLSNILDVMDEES
Put plainly: BTK degradation in TMD-8 cells (HTRF assay). The assay is classed as cell-based. The conditions noted are these: 6 h treatment, IC50 (DC50) of BTK degradation. The procedure:
TMD-8 cells were treated with compounds diluted in 0.2% DMSO, dilution was done according to the following protocol: (1) making 500× stock solution in DMSO from 1 mM by 6-fold dilution, total 8 doses were included; (2) making 2× solution in cell culture medium by transferring 0.5 μl 500× stock solution into 125 μl medium; (3) adding 15 μl of 2× solution to cells for incubation of 6 h.
After 6 h treatment, 10 μl 4× lysis buffer was added to each well; the plate was sealed and incubated for 30 min at room temperature on a plate shaker; Once the cells was lysed, 16 μL of cell lysate were transferred to a PE 384-well HTRF detection plate; 4 μL of pre-mixed HTRF antibodies were added to each well; the plate was covered with a plate sealer, and then spinned at 1000 rpm for 1 min, then incubated overnight at room temperature; the results were read on BMG PheraStar with HTRF protocol (337 nm-665 nm-620 nm).
The IC50 (DC50) value of a compound can be obtained by fitting the following equation
(§1) wherein, X and Y are known values, and IC50, Hillslope, Top and Bottom are the parameters obtained by fitting with software. Y is the inhibition percentage (calculated from the equation), X is the concentration of the compound; IC50 is the concentration of the compound when the 50% inhibition is reached. The smaller the IC50 value is, the stronger the inhibitory ability of the compound is. Vice versa, the higher the IC50 value is, the weaker the ability the inhibitory ability of the compound is; Hillslope represents the slope of the fitted curve, generally around 1 *; Bottom represents the minimum value of the curve obtained by data fitting, which is generally 0%±20%; Top represents the maximum value of the curve obtained by data fitting, which is generally 100%±20%. The experimental data were fitted by calculating and analyzing with Dotmatics data analysis software.

The next assay has as its system HEK-293 cells. Put plainly: HEK-293 cytotoxicity detection (CellTiter-Glo). Conditions: HEK-293 cells, 72 h incubation, CellTiter-Glo luminescence, IC50 of cell proliferation inhibition, read-out: HEK293. In kind it is cell-based. On the procedure: HEK-293 cells were treated with compounds diluted in 0.2% DMSO, dilution was done according to the following protocol: (1) making 500× stock solution in DMSO from 5 mM by 4-fold dilution, total 8 doses were included; (2) making 2× solution in cell culture medium by transferring 0.5 ul 500× stock solution into 125 μl medium; (3) adding 50 μl of 2× solution to cells for incubation of 72 h.
25 μl of the CellTiter-Glo®Reagent [(Promega) -Cat No. G7572] was added to each well in the 96-well plate. The contents were mixed for 2 minutes on an orbital shaker to induce cell lysis. The plate was then allowed to incubate at room temperature for 10 minutes to stabilize luminescent signal. Luminescence was recorded on BMG PheraStar with luminescence protocol.
The IC50 value of a compound can be obtained by fitting the following equation
as §1, with “Wherein,” for “wherein,”

Read-outs that look alike come from different tables or passages of the source. Bounds are passed on as bounds.

For `COc1cc2c(cc1N1CCN(CC3CCN(c4ccc(N5CCC(=O)NC5=O)cc4)CC3)CC1)[nH]c1ncnc(-c3ccc([C@@H](C)NC(=O)c4nc(C5(C)CC5)no4)c(C)c3F)c12` [Example 53, (R)—N-(1-(4-(7-(4-((1-(4-(2,4-dioxotetrahydropyrimidin-1(2H)-yl)phenyl)piperidin-4-yl)methyl)piperazin-1-yl)-6-methoxy-9H-pyrimido[4,5-b]indol-4-yl)-3-fluoro-2-methylphenyl)ethyl)-3-(1-methylcyclopropyl)-1,2,4-oxadiazole-5-carboxamide], the DC50 at BTK came to 2.26 nM. In addition, the IC50 in the assay on HEK-293 cells (Homo sapiens) is > 10000 nM.

On BTK, `Cc1cc(-c2ncnc3[nH]c4cc(N5CCC6(CC5)CCN([C@H]5C[C@H](c7ccc(N[C@@H]8CCC(=O)NC8=O)cc7)C5)CC6)ccc4c23)ccc1[C@@H](C)NC(=O)c1nc(C(C)(C)C)no1` [Example 109, 3-(tert-butyl)-N—((R)-1-(4-(7-(9-((1R,3r)-3-(4-(((R)-2,6-dioxopiperidin-3-yl)amino)phenyl)cyclobutyl)-3,9-diazaspiro[5.5]undecan-3-yl)-9H-pyrimido[4,5-b]indol-4-yl)-2-methylphenyl)ethyl)-1,2,4-oxadiazole-5-carboxamide] returned a DC50 of 6.07 nM. The IC50 in the assay with HEK-293 cells (Homo sapiens) amounted to 1010 nM.

As to `Cc1c([C@@H](C)NC(=O)c2noc(C(C)(C)C)n2)ccc(-c2ncnc3[nH]c4cc(N5CCN(Cc6ccc(SC7CCC(=O)NC7=O)cc6)CC5)ccc4c23)c1F` (stereo partly drawn) [Example 88, 5-(tert-butyl)-N-((1R)-1-(4-(7-(4-(4-((2,6-dioxopiperidin-3-yl)thio)benzyl)piperazin-1-yl)-9H-pyrimido[4,5-b]indol-4-yl)-3-fluoro-2-methylphenyl)ethyl)-1,2,4-oxadiazole-3-carboxamide], the DC50 at BTK is > 2000 nM. In addition, the IC50 with HEK-293 cells (Homo sapiens) is > 10000 nM.

As for `COc1cc2c(cc1N1CCN(C3CC(c4ccc([C@H]5CCC(=O)NC5=O)cc4)C3)CC1)[nH]c1ncnc(-c3ccc([C@@H](C)NC(=O)c4nc(C(C)(C)C)no4)c(C)c3)c12` (stereo partly drawn) [Example 50, 3-(tert-butyl)-N—((R)-1-(4-(7-(4-(3-(4-((R)-2,6-dioxopiperidin-3-yl)phenyl)cyclobutyl)piperazin-1-yl)-6-methoxy-9H-pyrimido[4,5-b]indol-4-yl)-2-methylphenyl)ethyl)-1,2,4-oxadiazole-5-carboxamide], half-maximal degradation on BTK (DC50) was put at 0.171 nM. The IC50 in the assay on HEK-293 cells (Homo sapiens) was > 10000 nM.

On to `Cc1c([C@@H](C)NC(=O)c2noc(C(C)(C)C)n2)ccc(-c2ncnc3[nH]c4cc(N5CCN(C6CC(c7ccc(N8CCC(=O)NC8=O)cc7)C6)CC5)ccc4c23)c1F` (stereo partly drawn) [Example 33, (R)-5-(tert-butyl)-N-(1-(4-(7-(4-(3-(4-(2,4-dioxotetrahydropyrimidin-1(2H)-yl)phenyl)cyclobutyl)piperazin-1-yl)-9H-pyrimido[4,5-b]indol-4-yl)-3-fluoro-2-methylphenyl)ethyl)-1,2,4-oxadiazole-3-carboxamide], for which, on BTK, the DC50 turned out to be 3.67 nM. The IC50 in the assay on HEK-293 cells (Homo sapiens) is > 10000 nM.

Turning to `COc1cc2c(cc1N1CCN([C@H]3C[C@@H](c4ccc(O[C@H]5CCC(=O)NC5=O)cc4)C3)CC1)[nH]c1ncnc(-c3ccc([C@@H](C)NC(=O)c4nc(C(C)(C)C)no4)c(C)c3)c12` [Example 128, 3-(tert-butyl)-N—((R)-1-(4-(7-(4-((1R,3s)-3-(4-(((S)-2,6-dioxopiperidin-3-yl)oxy)phenyl)cyclobutyl)piperazin-1-yl)-6-methoxy-9H-pyrimido[4,5-b]indol-4-yl)-2-methylphenyl)ethyl)-1,2,4-oxadiazole-5-carboxamide], the DC50 on BTK came out at 2.12 nM. Moreover, the IC50 with HEK-293 cells was > 10000 nM.

At BTK, `COc1cc2c(cc1N1CCN(C3CC(c4ccc([C@H]5CCC(=O)NC5=O)cc4)C3)CC1)[nH]c1ncnc(-c3ccc([C@@H](C)NC(=O)c4nc(C5(C)CC5)no4)c(C)c3F)c12` (stereo partly drawn) [Example 72, N—((R)-1-(4-(7-(4-(3-(4-((R)-2,6-dioxopiperidin-3-yl)phenyl)cyclobutyl)piperazin-1-yl)-6-methoxy-9H-pyrimido[4,5-b]indol-4-yl)-3-fluoro-2-methylphenyl)ethyl)-3-(1-methylcyclopropyl)-1,2,4-oxadiazole-5-carboxamide] came in with a DC50 of 15.9 nM. Further, the IC50 in the assay with HEK-293 cells (Homo sapiens) was > 10000 nM.

At BTK, `Cc1cc(N2CCC(CN3CCN(c4ccc5c(c4)[nH]c4ncnc(-c6ccc([C@@H](C)NC(=O)c7noc(C(C)(C)C)n7)c(C)c6F)c45)CC3)CC2)ccc1N1CCC(=O)NC1=O` [Example 28, (R)-5-(tert-butyl)-N-(1-(4-(7-(4-((1-(4-(2,4-dioxotetrahydropyrimidin-1(2H)-yl)-3-methylphenyl)piperidin-4-yl)methyl)piperazin-1-yl)-9H-pyrimido[4,5-b]indol-4-yl)-3-fluoro-2-methylphenyl)ethyl)-1,2,4-oxadiazole-3-carboxamide] registered a DC50 of 0.309 nM. In the assay with HEK-293 cells (Homo sapiens), the IC50 is > 10000 nM.

Turning to `Cc1c([C@@H](C)NC(=O)c2noc(C(C)(C)C)n2)ccc(-c2ncnc3[nH]c4cc(N5CCN(Cc6ccc7c(c6)C6(CC6)C(=O)N7C6CCC(=O)NC6=O)CC5)ccc4c23)c1F` (stereo partly drawn) [Example 79, 5-(tert-butyl)-N-((1R)-1-(4-(7-(4-((1′-(2,6-dioxopiperidin-3-yl)-2′-oxospiro[cyclopropane-1,3′-indolin]-5′-yl)methyl)piperazin-1-yl)-9H-pyrimido[4,5-b]indol-4-yl)-3-fluoro-2-methylphenyl)ethyl)-1,2,4-oxadiazole-3-carboxamide], the DC50 on BTK came to 15.9 nM. Also, the IC50 in the assay on HEK-293 cells (Homo sapiens) is > 10000 nM.

In the case of `Cc1cc(-c2ncnc3[nH]c4ccc(N5CCN(CC6CCN(c7ccc(N8CCC(=O)NC8=O)cc7)CC6)CC5)cc4c23)ccc1CNC(=O)c1nc(C(C)(C)C)no1` [Example 1, 3-(tert-butyl)-N-(4-(6-(4-((1-(4-(2,4-dioxotetrahydropyrimidin-1(2H)-yl)phenyl)piperidin-4-yl)methyl)piperazin-1-yl)-9H-pyrimido[4,5-b]indol-4-yl)-2-methylbenzyl)-1,2,4-oxadiazole-5-carboxamide], the DC50 at BTK was found to be 4.94 nM. The IC50 in the assay on HEK-293 cells (Homo sapiens) is > 10000 nM.

Compound `Cc1cc(-c2ncnc3[nH]c4cc(-c5ccn(CC6CCN(c7ccc(N8CCC(=O)NC8=O)cc7)CC6)c5)ccc4c23)ccc1[C@@H](C)NC(=O)c1nc(C(C)(C)C)no1` [Example 11, (R)-3-(tert-butyl)-N-(1-(4-(7-(1-((1-(4-(2,4-dioxotetrahydropyrimidin-1(2H)-yl)phenyl)piperidin-4-yl)methyl)-1H-pyrrol-3-yl)-9H-pyrimido[4,5-b]indol-4-yl)-2-methylphenyl)ethyl)-1,2,4-oxadiazole-5-carboxamide] had a DC50 on BTK of 9.78 nM. For the same compound, the IC50 in the assay with HEK-293 cells (Homo sapiens) was > 10000 nM.

The compound `COc1cc2c(cc1N1CCN(CC3CCN(c4ccc(N5CCC(=O)NC5=O)cc4)CC3)CC1)[nH]c1ncnc(-c3cc(C)c([C@@H](C)NC(=O)c4nc(C(C)(C)C)no4)cc3F)c12` [Example 62, (R)-3-(tert-butyl)-N-(1-(4-(7-(4-((1-(4-(2,4-dioxotetrahydropyrimidin-1(2H)-yl)phenyl)piperidin-4-yl)methyl)piperazin-1-yl)-6-methoxy-9H-pyrimido[4,5-b]indol-4-yl)-5-fluoro-2-methylphenyl)ethyl)-1,2,4-oxadiazole-5-carboxamide] registered a DC50 at BTK of 0.414 nM. Further, the IC50 in the assay with HEK-293 cells (Homo sapiens) is > 10000 nM.
